From ChEMBL document CHEMBL1629435, “Novel insights into the use of Glowing LNA as nucleic acid detection probes--influence of labeling density and nucleobases” (Bioorg Med Chem Lett, 2010) come the findings set out here.

The term Tm denotes the temperature at the midpoint of the melting transition. Broadly, the ΔTm is the shift of the melting midpoint relative to a reference.

Common to all, as to assay type: nucleic-acid assay
Assay [1] relates to Nucleic Acid. The assay is described as follows: Binding affinity to AAA TAT ATA GTG C DNA sequence assessed as melting temperature by thermal denaturation assay.
The subject of assay [2] is Nucleic Acid. The assay is described as follows: Binding affinity to AAA UAU AUA GUG C RNA sequence assessed as melting temperature by thermal denaturation assay.
In assay [3] the test system is Nucleic Acid. As to the kind of experiment: Binding affinity to AAA TAT ATA GTG C DNA sequence assessed as change in melting temperature by thermal denaturation assay.
Assay [4] has as its system Nucleic Acid. The assay is described as follows: Binding affinity to AAA UAU AUA GUG C RNA sequence assessed as change in melting temperature by thermal denaturation assay.
The test system of assay [5] is Nucleic Acid. As to the kind of experiment: Binding affinity to AAA TAT ATA GTG DNA sequence by fluorescence emission spectrum analysis.
Assay [6] concerns Nucleic Acid. As to the kind of experiment: Binding affinity to AAA UAU AUA GUG C RNA sequence by fluorescence emission spectrum analysis.
Assay [7] has as its system Nucleic Acid. The assay is described as follows: Binding affinity to CGT AGA GTG DNA sequence assessed as melting temperature by thermal denaturation assay.
Assay [8] deals with Nucleic Acid. The assay is described as follows: Binding affinity to CGU AGA GUG RNA sequence assessed as melting temperature by thermal denaturation assay.
In assay [9] the test system is Nucleic Acid. As to the kind of experiment: Binding affinity to CGT AGA GTG DNA sequence assessed as change in melting temperature by thermal denaturation assay.
For assay [10], the system named is Nucleic Acid. The assay is described as follows: Binding affinity to CGU AGA GUG RNA sequence assessed as change in melting temperature by thermal denaturation assay.
Assay [11] concerns Nucleic Acid. The assay is described as follows: Binding affinity to CGT AAA GTG DNA sequence assessed as change in melting temperature by thermal denaturation assay.
Assay [12] has as its system Nucleic Acid. The assay is described as follows: Binding affinity to CGT ACA GTG DNA sequence assessed as change in melting temperature by thermal denaturation assay.
Assay [13] has as its system Nucleic Acid. The assay is described as follows: Binding affinity to CGT ATA GTG DNA sequence assessed as change in melting temperature by thermal denaturation assay.
Assay [14] deals with Nucleic Acid. As to the kind of experiment: Binding affinity to CGU AAA GUG RNA sequence assessed as change in melting temperature by thermal denaturation assay.
Assay [15] has as its system Nucleic Acid. The assay is described as follows: Binding affinity to CGU ACA GUG RNA sequence assessed as change in melting temperature by thermal denaturation assay.
The subject of assay [16] is Nucleic Acid. The assay is described as follows: Binding affinity to CGU AUA GUG RNA sequence assessed as change in melting temperature by thermal denaturation assay.

The structures appear in SMILES notation. Some results are limits rather than exact numbers.

With `Cc1cn([C@@H]2O[C@@]3(COP(=O)(O)O[C@H]4[C@@H](O)[C@H](n5cnc6c(N)ncnc65)O[C@@H]4COP(=O)(O)O[C@H]4[C@@H]5[C@H](n6cc(C)c(=O)[nH]c6=O)O[C@@]4(COP(=O)(O)O[C@H]4C[C@H](n6cc(C)c(=O)[nH]c6=O)O[C@@H]4COP(=O)(O)O[C@H]4C[C@H](n6cc(C)c(=O)[nH]c6=O)O[C@@H]4COP(=O)(O)O)CN5C(=O)c4ccc5ccc6cccc7ccc4c5c67)CN(C(=O)c4ccc5ccc6cccc7ccc4c5c67)[C@@H]2[C@@H]3OP(=O)(O)OC[C@H]2O[C@@H](n3cnc4c(N)ncnc43)[C@H](O)[C@@H]2OP(=O)(O)OC[C@H]2O[C@@H](n3cc(C)c(=O)[nH]c3=O)C[C@@H]2OP(=O)(O)OC[C@H]2O[C@@H](n3cnc4c(N)ncnc43)[C@H](O)[C@@H]2OP(=O)(O)OC[C@H]2O[C@@H](n3cc(C)c(=O)[nH]c3=O)C[C@@H]2OP(=O)(O)OC[C@H]2O[C@@H](n3ccc(N)nc3=O)[C@H](O)[C@@H]2OP(=O)(O)OC[C@H]2O[C@@H](n3cnc4c(N)ncnc43)[C@H](O)[C@@H]2OP(=O)(O)OC[C@H]2O[C@@H](n3ccc(N)nc3=O)[C@H](O)[C@@H]2OP(=O)(O)OC[C@H]2O[C@@H](n3cnc4c(=O)[nH]c(N)nc43)[C@H](O)[C@@H]2O)c(=O)[nH]c1=O`, the Tm came to 46.5 °C with Nucleic Acid [1] and 48 °C with Nucleic Acid [2]. The shift in melting temperature (ΔTm) was found to be 6.5 °C with Nucleic Acid [3] and 8 °C in the assay with Nucleic Acid [4]. For the same compound, the fold change (FC) in the assay on Nucleic Acid [5] and in the assay with Nucleic Acid [6] was 3.5 each time.

In the case of `Cc1cn([C@@H]2O[C@@]3(COP(=O)(O)O[C@H]4[C@@H](O)[C@H](n5cnc6c(=O)[nH]c(N)nc65)O[C@@H]4COP(=O)(O)O)CN(C(=O)c4ccc5ccc6cccc7ccc4c5c67)[C@@H]2[C@@H]3OP(=O)(O)OC[C@H]2O[C@@H](n3cnc4c(N)ncnc43)[C@H](O)[C@@H]2OP(=O)(O)OC[C@H]2O[C@@H](n3cc(C)c(=O)[nH]c3=O)C[C@@H]2OP(=O)(O)OC[C@@]23CN(C(=O)c4ccc5ccc6cccc7ccc4c5c67)[C@@H]([C@H](n4cc(C)c(N)nc4=O)O2)[C@@H]3OP(=O)(O)OC[C@H]2O[C@@H](n3cc(C)c(=O)[nH]c3=O)C[C@@H]2OP(=O)(O)OC[C@@]23CN(C(=O)c4ccc5ccc6cccc7ccc4c5c67)[C@@H]([C@H](n4cc(C)c(N)nc4=O)O2)[C@@H]3OP(=O)(O)OC[C@H]2O[C@@H](n3cnc4c(N)ncnc43)[C@H](O)[C@@H]2OP(=O)(O)OC[C@H]2O[C@@H](n3ccc(N)nc3=O)[C@H](O)[C@@H]2O)c(=O)nc1N`, the melting temperature (Tm) in the assay with Nucleic Acid [7] turned out to be 49.5 °C; with Nucleic Acid [8], 62 °C. Moreover, the ΔTm with Nucleic Acid [9] was 5 °C; in the assay with Nucleic Acid [10] it was 8.5 °C; in the assay on Nucleic Acid [11] it was -27 °C; in the assay on Nucleic Acid [12], -31 °C; in the assay with Nucleic Acid [13], -31.5 °C. The fold change (FC) in the assay with Nucleic Acid [5] and with Nucleic Acid [6] was 3.6 throughout.

As for `Cc1cn([C@@H]2O[C@@]3(COP(=O)(O)O[C@H]4C[C@H](n5cc(C)c(=O)[nH]c5=O)O[C@@H]4COP(=O)(O)O[C@H]4[C@@H]5[C@H](n6cc(C)c(N)nc6=O)O[C@@]4(COP(=O)(O)O[C@H]4C[C@H](n6cc(C)c(=O)[nH]c6=O)O[C@@H]4COP(=O)(O)O[C@H]4[C@@H](O)[C@H](n6cnc7c(N)ncnc76)O[C@@H]4COP(=O)(O)O[C@H]4[C@@H](O)[C@H](n6ccc(N)nc6=O)O[C@@H]4COP(=O)(O)O[C@H]4[C@@H](O)[C@H](n6cnc7c(=O)[nH]c(N)nc76)O[C@@H]4COP(=O)(O)O)CN5C(=O)c4ccc5ccc6cccc7ccc4c5c67)CN(C(=O)c4ccc5ccc6cccc7ccc4c5c67)[C@@H]2[C@@H]3OP(=O)(O)OC[C@H]2O[C@@H](n3cnc4c(N)ncnc43)[C@H](O)[C@@H]2OP(=O)(O)OC[C@H]2O[C@@H](n3ccc(N)nc3=O)[C@H](O)[C@@H]2O)c(=O)nc1N`, the results for the melting temperature (Tm) in the assay on Nucleic Acid [7] and with Nucleic Acid [8] were 43 °C and 52.5 °C, respectively. For the same compound, the ΔTm is 4.5 °C with Nucleic Acid [9]; 8 °C in the assay on Nucleic Acid [10]; -27 °C in the assay with Nucleic Acid [11]; -30 °C with Nucleic Acid [12]; -30 °C in the assay on Nucleic Acid [13]. Also, the fold change (FC) in the assay with Nucleic Acid [5] and in the assay with Nucleic Acid [6] was 3.6 each time.

In the case of `Cc1cn([C@@H]2O[C@@]3(COP(=O)(O)O[C@H]4C[C@H](n5cnc6c(N)ncnc65)O[C@@H]4COP(=O)(O)O[C@H]4C[C@H](n5cnc6c(=O)[nH]c(N)nc65)O[C@@H]4COP(=O)(O)O[C@H]4[C@H]5OC[C@]4(COP(=O)(O)O[C@H]4C[C@H](n6cnc7c(=O)[nH]c(N)nc76)O[C@@H]4CO)O[C@H]5n4cc(C)c(=O)[nH]c4=O)CO[C@@H]2[C@@H]3OP(=O)(O)OC[C@H]2O[C@@H](n3cnc4c(N)ncnc43)C[C@@H]2OP(=O)(O)OC[C@@]23CO[C@@H]([C@H](n4cc(C)c(=O)[nH]c4=O)O2)[C@@H]3OP(=O)(O)OC[C@H]2O[C@@H](n3cnc4c(=O)[nH]c(N)nc43)C[C@@H]2OP(=O)(O)OC[C@H]2O[C@@H](n3ccc(N)nc3=O)C[C@@H]2O)c(=O)[nH]c1=O`, the results for the melting temperature (Tm) in the assay with Nucleic Acid [1] and in the assay on Nucleic Acid [2] were 45.5 °C and 46.5 °C, respectively. Also, the ΔTm in the assay with Nucleic Acid [3] amounted to 6 °C; in the assay with Nucleic Acid [4], 7 °C. Also, the fold change (FC) in the assay with Nucleic Acid [5] and with Nucleic Acid [6] was 3.5 in each case.

In the case of `Cc1cn([C@H]2C[C@H](OP(=O)(O)OC[C@H]3O[C@@H](n4ccc(N)nc4=O)[C@H](O)[C@@H]3OP(=O)(O)OC[C@H]3O[C@@H](n4cnc5c(N)ncnc54)[C@H](O)[C@@H]3OP(=O)(O)OC[C@H]3O[C@@H](n4ccc(N)nc4=O)[C@H](O)[C@@H]3O)[C@@H](COP(=O)(O)O[C@H]3[C@@H](O)[C@H](n4ccc(N)nc4=O)O[C@@H]3COP(=O)(O)O[C@H]3C[C@H](n4cc(C)c(=O)[nH]c4=O)O[C@@H]3COP(=O)(O)O[C@H]3[C@@H](O)[C@H](n4cnc5c(N)ncnc54)O[C@@H]3COP(=O)(O)O[C@H]3[C@@H](O)[C@H](n4ccc(N)nc4=O)O[C@@H]3COP(=O)(O)O[C@H]3[C@@H](O)[C@H](n4cnc5c(=O)[nH]c(N)nc54)O[C@@H]3COP(=O)(O)O)O2)c(=O)[nH]c1=O`, the melting temperature (Tm) with Nucleic Acid [7] came out at 34.5 °C; in the assay on Nucleic Acid [8], 36.5 °C. The ΔTm in the assay with Nucleic Acid [11] is less than -24.5 °C; in the assay on Nucleic Acid [12], less than -24.5 °C; in the assay on Nucleic Acid [13], -21.5 °C; in the assay on Nucleic Acid [14] it was -23.5 °C; in the assay with Nucleic Acid [15], less than -26.5 °C; in the assay with Nucleic Acid [16] it was less than -26.5 °C.

For `Cc1cn([C@@H]2O[C@@]3(COP(=O)(O)O[C@H]4[C@@H](O)[C@H](n5cnc6c(=O)[nH]c(N)nc65)O[C@@H]4COP(=O)(O)O)CN(C(=O)c4ccc5ccc6cccc7ccc4c5c67)[C@@H]2[C@@H]3OP(=O)(O)OC[C@H]2O[C@@H](n3cnc4c(N)ncnc43)[C@H](O)[C@@H]2OP(=O)(O)OC[C@H]2O[C@@H](n3cc(C)c(=O)[nH]c3=O)C[C@@H]2OP(=O)(O)OC[C@@]23CN(C(=O)c4ccc5ccc6cccc7ccc4c5c67)[C@@H]([C@H](n4cc(C)c(N)nc4=O)O2)[C@@H]3OP(=O)(O)OC[C@H]2O[C@@H](n3cc(C)c(=O)[nH]c3=O)C[C@@H]2OP(=O)(O)OC[C@H]2O[C@@H](n3ccc(N)nc3=O)[C@H](O)[C@@H]2OP(=O)(O)OC[C@H]2O[C@@H](n3cnc4c(N)ncnc43)[C@H](O)[C@@H]2OP(=O)(O)OC[C@H]2O[C@@H](n3ccc(N)nc3=O)[C@H](O)[C@@H]2O)c(=O)nc1N`, the Tm in the assay with Nucleic Acid [7] was 45 °C; in the assay on Nucleic Acid [8], 47 °C. The ΔTm is 5.5 °C in the assay with Nucleic Acid [9]; 5.5 °C with Nucleic Acid [10]; -27 °C with Nucleic Acid [11]; -30 °C with Nucleic Acid [12]; -32.5 °C in the assay with Nucleic Acid [13]. For the same compound, the fold change (FC) with Nucleic Acid [5] and in the assay on Nucleic Acid [6] was 3.6 throughout.

Take `Cc1cn([C@@H]2O[C@@]3(COP(=O)(O)O[C@H]4C[C@H](n5cc(C)c(=O)[nH]c5=O)O[C@@H]4COP(=O)(O)O[C@H]4[C@@H](O)[C@H](n5ccc(N)nc5=O)O[C@@H]4COP(=O)(O)O[C@H]4C[C@H](n5cc(C)c(=O)[nH]c5=O)O[C@@H]4COP(=O)(O)O[C@H]4[C@@H](O)[C@H](n5cnc6c(N)ncnc65)O[C@@H]4COP(=O)(O)O[C@H]4[C@@H](O)[C@H](n5ccc(N)nc5=O)O[C@@H]4COP(=O)(O)O[C@H]4[C@@H](O)[C@H](n5cnc6c(=O)[nH]c(N)nc65)O[C@@H]4COP(=O)(O)O)CN(C(=O)c4ccc5ccc6cccc7ccc4c5c67)[C@@H]2[C@@H]3OP(=O)(O)OC[C@H]2O[C@@H](n3cnc4c(N)ncnc43)[C@H](O)[C@@H]2OP(=O)(O)OC[C@H]2O[C@@H](n3ccc(N)nc3=O)[C@H](O)[C@@H]2O)c(=O)nc1N`: the Tm in the assay with Nucleic Acid [7] is 37 °C; in the assay with Nucleic Acid [8], 40 °C. The values for the ΔTm with Nucleic Acid [9] and with Nucleic Acid [10] were 2.5 °C and 3.5 °C, respectively.
